Results taken from patent US6620828B2, “Thiazole compounds and pharmaceutical compositions for inhibiting protein kinases and methods for their use” (Agouron Pharmaceuticals, Inc., priority 1999, dated 2003).
“And” between values parts separate entries of the source, which are not always exact repeats. Equal entries are not always repeated.

Assays:
[1] = system: human umbilical vein endothelial cells (HUVEC); experiment: HUVEC proliferation assay; assay type: cell-based; settings: Homo sapiens, HUVEC, Table 2
Procedure, shortened: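 Readout was MTT dye reduction (A595) after 72 h of stimulation with VEGF at 6 ng/ml final. Compound, in 0.1% DMSO final, was added 1 h before VEGF to HUVEC starved 24 h in 1% FBS. % inhibition was scaled between VEGF-alone and unstimulated wells; IC50 was fitted from triplicate dose curves.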

[2] = target: T1, FGF-R1 (Homo sapiens, UniProt P11362, C488A/C584S/L457V); experiment: FGF-R spectrophotometric assay; assay type: biochemical; settings: Table 2
T1 construct: starting from the endogenous methionine residue 456 to glutamate 766; made in house; host or cells: baculovirus vector expression system
T1 sequence (P11362 456-766 L457V/C488A/C584S): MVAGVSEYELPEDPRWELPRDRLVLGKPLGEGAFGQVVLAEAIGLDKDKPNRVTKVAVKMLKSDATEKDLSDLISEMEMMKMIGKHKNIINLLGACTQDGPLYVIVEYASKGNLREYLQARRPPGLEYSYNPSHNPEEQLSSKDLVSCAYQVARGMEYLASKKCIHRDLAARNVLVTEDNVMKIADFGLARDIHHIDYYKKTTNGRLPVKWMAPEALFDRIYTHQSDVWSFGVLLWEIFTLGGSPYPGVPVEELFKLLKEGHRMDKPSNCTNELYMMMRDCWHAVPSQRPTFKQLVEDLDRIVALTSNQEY
Procedure, shortened: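 Kinase domain (Met456–Glu766, baculovirus-expressed) used at 50 nM in a spectrophotometric assay run as for VEGF-R2. Substrates were 2 mM ATP and 15 mM poly(E4Y1).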

[3] = system: lung cancer cells (line MV522); experiment: Cancer cell proliferation (MV522) assay; assay type: cell-based; settings: MV522, Table 2
[4] = target: T2, FAKcd409 (Homo sapiens, UniProt Q05397, P410T); experiment: FAK HTS assay; assay type: biochemical; settings: 10 uM compound, HTS Delphia assay; 10 µM
T2 construct: comprises residues methionine 409 to glutamate 689; made in house; host or cells: baculovirus vector expression system
T2 sequence (Q05397 409-689 P410T): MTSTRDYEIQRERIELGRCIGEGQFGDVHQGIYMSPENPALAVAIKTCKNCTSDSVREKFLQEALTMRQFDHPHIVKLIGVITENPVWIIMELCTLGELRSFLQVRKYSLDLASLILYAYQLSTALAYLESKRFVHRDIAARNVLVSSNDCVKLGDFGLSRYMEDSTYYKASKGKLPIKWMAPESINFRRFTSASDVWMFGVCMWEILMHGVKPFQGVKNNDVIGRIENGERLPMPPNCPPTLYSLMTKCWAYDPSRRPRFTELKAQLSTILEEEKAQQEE

[5] = target: T3, CHK1 (Homo sapiens, UniProt O14757); experiment: CHK1 high-throughput screening; assay type: biochemical; settings: read-out: % inhibition @ 20 μM, Table 4, repeated entries per example
T3 sequence (O14757 1-476): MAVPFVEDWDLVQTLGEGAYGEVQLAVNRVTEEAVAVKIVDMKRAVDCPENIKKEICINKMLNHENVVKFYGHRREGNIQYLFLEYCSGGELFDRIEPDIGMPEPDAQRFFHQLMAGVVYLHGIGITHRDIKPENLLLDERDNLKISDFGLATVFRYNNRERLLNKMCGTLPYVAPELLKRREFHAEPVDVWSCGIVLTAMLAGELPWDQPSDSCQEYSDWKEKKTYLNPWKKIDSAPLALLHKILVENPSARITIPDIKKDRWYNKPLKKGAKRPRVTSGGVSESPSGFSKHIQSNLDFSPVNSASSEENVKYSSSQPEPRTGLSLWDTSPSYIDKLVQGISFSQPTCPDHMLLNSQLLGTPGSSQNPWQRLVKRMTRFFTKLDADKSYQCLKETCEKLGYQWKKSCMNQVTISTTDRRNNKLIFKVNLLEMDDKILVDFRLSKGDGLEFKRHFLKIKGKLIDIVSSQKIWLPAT

| melting point | Ki [2] | IC50 [3] | % inhibition of FAK [4] | inhibition at 20 µM [5] | Compound | IC50 [1] |
| --- | --- | --- | --- | --- | --- | --- |
| 226 to 230 °C | 2400 nM | > 10000 nM |  |  | COc1cc(Nc2nc(N)c(-c3nc(-c4cccc(O)c4)cs3)s2)cc(OC)c1OC [A(17), 3-[4′-Amino-2′-(3,4,5-trimethoxy-phenylamino)-[2,5′]bithiazolyl-4-yl]-phenol] | > 1000 nM |
|  |  | > 10000 nM | −6% and −11% and −8% | 7.1% | CCCNc1nc(N)c(-c2nc(-c3cccc(O)c3)cs2)s1 [A(29), 3-(4′-Amino-2′-propylamino-[2,5′]bithiazolyl-4-yl)-phenol] | > 1000 nM |
|  |  | 5400 nM |  |  | COc1cc(Nc2nc(N)c(-c3nc(-c4cccc(O)c4)no3)s2)cc(OC)c1OC [K(1), 3-{5-[4-Amino-2-(3,4,5-trimethoxy-phenylamino)-thiazol-5-yl]-[1,2,4]oxadiazol-3-yl}-phenol] | 950 nM |
